Measurements from patent publication US9301961B2, “Autoimmune and inflammatory disorder therapy” (Katholieke Universiteit Leuven, K.U. Leuven R&D, priority 2011, dated 2016).
Read-outs that look alike come from different tables or passages of the source. One block for each molecule: values may come before it.

Key:
[1] = test system: Peripheral blood mononuclear cells (PBMCs) mixed with mitomycin C treated RPMI1788 cells; assay: Mixed lymphocyte reaction (MLR) assay, 3H-thymidine uptake
From the text: In the MLR assay PBMCs from two individuals are mixed together in tissue culture for several days. […] In the one-way MLR test, the mononuclear cells from one of the individuals are inactivated (usually by treatment with mitomycin C or irradiation), thereby allowing only the untreated remaining population of mononuclear cells, such as lymphocytes, to proliferate in response to foreign histocompatibility antigens.
The immunosuppressive effect of test compounds was also investigated using MLR assays. Peripheral blood mononuclear cells (PBMCs) were isolated from heparinized blood of healthy donors by density-gradient centrifugation over Lymphoprep. […] RPMI1788 cells were treated with 30 μg/mL mitomycin C for 20 min at 37° C., washed four times with medium, and finally suspended in complete RPMI medium to a density of 0.45×10^6 cells/mL. An amount of 100 μL of each cell suspension was mixed with 20 μL of diluted compound. The mixed cells were cultured at 37° C. for 6 days in 5% CO2. […] Thereafter, the cells were harvested on glass filter paper and the counts per minute (cpm) determined in a liquid scintillation counter.

[2] = test system: cardiac allograft rejection; assay: Cardiac allograft transplantation model, treatment day -1 to day 30 (Examples 7 and 8); type: in vivo, mice (C57BL/6 donor, Balb/c recipient); conditions: Example 8
Protocol: Inbreed C57BL/6 H-2b and Balb/c H-2d female mice, 8-10 weeks old, 20-25 g, were used as donor and recipient, respectively. Heterotopic heart transplantation was performed by implanting the donor heart on the neck of recipients using conventional microsurgery techniques. Graft beating was checked daily by inspection and palpation. Cessation of beating indicated graft rejection, which was confirmed by histological examination. Housing and all experimental animal procedures were approved by the Institutional Animal Care and Research Advisory Committee of the KU Leuven.

[3] = test system: collagen-induced arthritis; assay: Collagen-induced arthritis model; type: in vivo, DBA1 male mice; conditions: 40 mg/kg/d oral gavage
Protocol: The activity of test compound in an in vivo model, the collagen-induced arthritis model, was investigated. […] DBA1 male mice, 8-10 weeks old, were distributed in 2 groups according to the treatment. Twelve animals received daily treatment with vehicle (1% methylcellulose), twelve others received compound (3) at 40 mg/kg/d in 1% methylcellulose. The treatment initiation started the day before the intradermal injection at the base of the tail of 100 μg of emulsified chicken collagen II in presence of complete Freund adjuvant and added heat-killed Mycobacterium butyricum. Daily inspection of the mice was performed to weight animals and quantify disease score according to the following scale (score 0: normal; score 1: redness and/or swelling in one joint; score 2: redness and/or swelling in more than one joint; score 3: redness and/or swelling in the entire paw; score 4: deformity and/or ankylosis). On the day of sacrifice (day 42) serum were collected and anti-collagen II antibody titers were determined by ELISA. Joints were harvested, fixed in 6% paraformaldehyde, decalcified in formic acid 6% for 48 h, sliced and stained by hematoxylin and eosin staining. Hyperplasia of the synovium, infiltration of mono and polymorphonuclear cells and pannus formation parameters were scored blindly.

[4] = test system: cardiac allograft rejection; assay: Cardiac allograft transplantation and tolerance model, treatment day 0 to day 30 (Example 9)
From the text: The activity of test compound in a mouse model of cardiac allograft transplantation experiment was investigated. […] Animals with beating graft at day 60 were rechallenged with a second graft from the same strain donor or from a third party donor.
To evaluate the operational tolerance phenotype, animals with functional graft at day 60 were challenged with a second graft from the same donor strain or from a third party. No treatment was applied.
Inbreed C57BL/6 H-2^b and Balb/c H-2^d female mice, 8-10 weeks old, 20-25 g, were used as donor and recipient, respectively. Heterotopic heart transplantation was performed by implanting the donor heart on the neck of recipients using conventional microsurgery techniques. Graft beating was checked daily by inspection and palpation. Cessation of beating indicated graft rejection. The third party donor was C3H H-2^k female mice, 8-10 weeks old, 20-25 gr.
Treatment started the day of transplantation (day 0) until day 30 post transplantation.

[5] = test system: murine splenocytes stimulated with α-CD3 antibody; assay: Cytokine secretion after α-CD3 stimulation; type: cell-based, Balb/C mice; conditions: Mus musculus, Splenocyte, 24 h
Protocol: The ability of test compounds to inhibit cytokine release by murine splenocytes after stimulation with α-CD3 antibody was also investigated.
2×10^6 splenocytes from Balb/C female mice, 8-10 weeks old in 220 μl of complete medium were stimulated with 0.1 μg of hamster anti mouse CD3ε antibody in presence of various concentrations of test compounds. After 24 h of incubation at 37° C., 5% CO2, supernatant were collected and cytokine titers were determined by flow cytometry according manufacturer protocols (MCB United States, Arlington, Mass., USA).
The results are shown in FIG. 1 compared to a DMSO negative control (▾). […].

[6] = biological target: T1, YSK4 (h) (Homo sapiens, UniProt Q56UN5); assay: Commercial kinase activity assay (Millipore, 33P-ATP filter); type: biochemical; conditions: 10 μM test compound
T1 construct: purchased Millipore
T1 sequence (Q56UN5 1-1328): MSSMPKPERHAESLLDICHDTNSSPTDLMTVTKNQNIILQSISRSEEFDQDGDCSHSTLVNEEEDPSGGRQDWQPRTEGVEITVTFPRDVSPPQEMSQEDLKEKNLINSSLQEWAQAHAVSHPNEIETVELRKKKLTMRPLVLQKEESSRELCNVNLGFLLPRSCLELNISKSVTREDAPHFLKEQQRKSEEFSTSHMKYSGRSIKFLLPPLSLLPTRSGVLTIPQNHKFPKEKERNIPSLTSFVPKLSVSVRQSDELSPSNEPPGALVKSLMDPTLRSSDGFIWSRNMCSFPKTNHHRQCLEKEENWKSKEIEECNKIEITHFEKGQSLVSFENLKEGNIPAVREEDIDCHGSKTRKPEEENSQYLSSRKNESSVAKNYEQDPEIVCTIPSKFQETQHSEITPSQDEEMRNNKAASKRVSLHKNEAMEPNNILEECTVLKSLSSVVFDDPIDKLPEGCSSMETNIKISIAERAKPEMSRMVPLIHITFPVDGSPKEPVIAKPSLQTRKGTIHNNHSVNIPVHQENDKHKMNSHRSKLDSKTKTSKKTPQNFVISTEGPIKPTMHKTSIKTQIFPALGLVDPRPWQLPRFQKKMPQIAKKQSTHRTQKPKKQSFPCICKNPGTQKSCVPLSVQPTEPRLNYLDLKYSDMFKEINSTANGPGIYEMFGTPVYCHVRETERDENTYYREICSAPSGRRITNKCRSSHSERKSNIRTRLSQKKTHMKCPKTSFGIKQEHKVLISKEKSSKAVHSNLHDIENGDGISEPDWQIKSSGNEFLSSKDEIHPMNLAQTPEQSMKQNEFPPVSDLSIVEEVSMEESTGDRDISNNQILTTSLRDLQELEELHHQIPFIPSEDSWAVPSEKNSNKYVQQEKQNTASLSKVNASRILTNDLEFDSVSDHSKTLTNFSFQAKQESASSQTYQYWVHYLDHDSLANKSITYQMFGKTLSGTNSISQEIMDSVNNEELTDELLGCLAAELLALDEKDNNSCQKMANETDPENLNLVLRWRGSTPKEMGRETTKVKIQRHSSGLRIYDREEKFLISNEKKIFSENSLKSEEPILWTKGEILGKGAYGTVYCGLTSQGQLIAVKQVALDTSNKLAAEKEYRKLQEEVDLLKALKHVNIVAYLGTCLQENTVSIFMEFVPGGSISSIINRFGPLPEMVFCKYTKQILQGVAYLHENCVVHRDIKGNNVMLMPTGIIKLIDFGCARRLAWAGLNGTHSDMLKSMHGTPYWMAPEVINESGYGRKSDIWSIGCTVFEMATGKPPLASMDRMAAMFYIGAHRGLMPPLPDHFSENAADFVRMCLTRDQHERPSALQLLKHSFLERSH
Protocol: (§1) LOK (h) was incubated with 8 mM MOPS pH 7.0, 0.2 mM EDTA, 250 μM […], 10 mM MgAcetate and [γ-^33P-ATP] (specific activity approx. 500 cpm/pmol, concentration as required). The reaction was initiated by the addition of the MgATP mix. After incubation for 40 minutes at room temperature, the reaction was stopped by the addition of 3% phosphoric acid solution. 10 μL of the reaction was then spotted onto a P30 filtermat and washed three times for 5 minutes in 75 mM phosphoric acid and once in methanol prior to drying and scintillation counting. PI3K p110β/p85α (h) PI3K (p110β/p85α) (h) was incubated in assay buffer containing 10 μM phosphatidylinositol-4,5-bisphosphate and MgATP (concentration as required). The reaction was initiated by the addition of the MgATP mix. After incubation for 30 minutes at room temperature, the reaction was stopped by the addition of stop solution containing EDTA and biotinylated phosphatidylinositol-3,4,5-trisphosphate. Finally, detection buffer was added, which contains europium-labelled anti-GST monoclonal antibody, GST-tagged GRP1 PH domain and streptavidinallophycocyanin. The plate was then read in time-resolved fluorescence mode and the homogenous time-resolved fluorescence (HTRF®) signal determined according to the formula HTRF=10000×(Em665nm/Em620 nm). YSK4 (h) YSK4 (h) was incubated with 8 mM MOPS pH 7.0, 0.2 mM EDTA, 250 […], 10 mM MgAcetate and [γ-^33P-ATP] (specific activity approx. 500 cpm/pmol, concentration as required). The reaction was initiated by the addition of the MgATP mix. After incubation for 40 minutes at room temperature, the reaction was stopped by the addition of 3% phosphoric acid solution. 10 μL of the reaction was then spotted onto a P30 filtermat and washed three times for 5 minutes in 75 mM phosphoric acid and once in methanol prior to drying and scintillation counting. PI4KA (PI4K alpha) The 2× PI4KA (PI4K alpha)/PI Lipid Kinase Substrate mixture was prepared in 20 mM Tris, pH 7.5, 0.4% Triton X-100, 5 mM MgCl2, 0.5 mM EGTA. The final 10 μL Kinase Reaction consisted of 75-300 ng PI4KA (PI4K alpha) and 100 μM PI Lipid Kinase Substrate in 7.5 mM HEPES, 10 mM Tris, pH 7.5, 0.2% Triton X-100, 2.5 mM MgCl2, 0.25 mM EGTA. After the 1 hour Kinase Reaction incubation, 5 μL of Detection Mix consisting of a europium labeled anti-ADP antibody, an Alexa Fluor® 647 labeled ADP tracer, and EDTA (to stop the kinase reaction) was added to the assay well. ADP formed by the kinase reaction (in the absence of an inhibitor) displaced the Alexa Fluor® 647 labeled ADP tracer from the antibody, resulting in a decrease in the TR-FRET signal. […] PI4KB (PI4K beta) The 2× PI4KB (PI4K beta)/PI Lipid Kinase Substrate mixture was prepared in 50 mM HEPES pH 7.5, 0.1% CHAPS, 1 mM EGTA, 4 mM MgCl2. […]

[7] = biological target: T2, LOK (h) (Homo sapiens, UniProt O94804); assay: as above; type: biochemical; conditions: 10 μM test compound
T2 construct: purchased Millipore
Protocol: as §1

[8] = biological target: PI4KIIIβ (PI4KB, PI4K beta) (Homo sapiens, UniProt Q9UBF8); assay: Commercial kinase activity assay (Invitrogen, ADP TR-FRET); conditions: for inhibition at 10 µM: read-out: % inhibition of PI4KIIIβ @ 10 μM
[9] = biological target: T3, PI4KA (PI4K alpha) (Homo sapiens, UniProt P42356); assay: as above; type: biochemical; conditions: 10 μM test compound
T3 construct: purchased Invitrogen

[10] = biological target: T4, PAK1 (Homo sapiens, UniProt Q13153); assay: Commercial kinase activity assay (Invitrogen, fluorescence); type: biochemical; conditions: 10 μM test compound
T4 construct: made in house; host or cells: E. coli BL21-derived host (T7 phage) or HEK-293

[11] = biological target: T5, PI3KCB (PI3K p110β/p85α (h)) (Homo sapiens, UniProt P42338); assay: Commercial kinase activity assay (Millipore, HTRF); type: biochemical; conditions: 10 μM test compound
T5 construct: purchased Millipore
Protocol: LOK (h) was incubated with 8 mM MOPS pH 7.0, 0.2 mM EDTA, 250 μM […], 10 mM MgAcetate and [γ-^33P-ATP] (specific activity approx. 500 cpm/pmol, concentration as required). The reaction was initiated by the addition of the MgATP mix. After incubation for 40 minutes at room temperature, the reaction was stopped by the addition of 3% phosphoric acid solution. 10 μL of the reaction was then spotted onto a P30 filtermat and washed three times for 5 minutes in 75 mM phosphoric acid and once in methanol prior to drying and scintillation counting. PI3K p110β/p85α (h) PI3K (p110β/p85α) (h) was incubated in assay buffer containing 10 μM phosphatidylinositol-4,5-bisphosphate and MgATP (concentration as required). The reaction was initiated by the addition of the MgATP mix. After incubation for 30 minutes at room temperature, the reaction was stopped by the addition of stop solution containing EDTA and biotinylated phosphatidylinositol-3,4,5-trisphosphate. Finally, detection buffer was added, which contains europium-labelled anti-GST monoclonal antibody, GST-tagged GRP1 PH domain and streptavidinallophycocyanin. The plate was then read in time-resolved fluorescence mode and the homogenous time-resolved fluorescence (HTRF®) signal determined according to the formula HTRF=10000×(Em665nm/Em620 nm). […]

[12] = animals with functional graft at day 60, no treatment, n=2
[13] = RPMI-1788, 144 h, read-out: IC50 MLR, 6 days culture

Chain of PI4KIIIβ (PI4KB, PI4K beta) (Q9UBF8 whole entry): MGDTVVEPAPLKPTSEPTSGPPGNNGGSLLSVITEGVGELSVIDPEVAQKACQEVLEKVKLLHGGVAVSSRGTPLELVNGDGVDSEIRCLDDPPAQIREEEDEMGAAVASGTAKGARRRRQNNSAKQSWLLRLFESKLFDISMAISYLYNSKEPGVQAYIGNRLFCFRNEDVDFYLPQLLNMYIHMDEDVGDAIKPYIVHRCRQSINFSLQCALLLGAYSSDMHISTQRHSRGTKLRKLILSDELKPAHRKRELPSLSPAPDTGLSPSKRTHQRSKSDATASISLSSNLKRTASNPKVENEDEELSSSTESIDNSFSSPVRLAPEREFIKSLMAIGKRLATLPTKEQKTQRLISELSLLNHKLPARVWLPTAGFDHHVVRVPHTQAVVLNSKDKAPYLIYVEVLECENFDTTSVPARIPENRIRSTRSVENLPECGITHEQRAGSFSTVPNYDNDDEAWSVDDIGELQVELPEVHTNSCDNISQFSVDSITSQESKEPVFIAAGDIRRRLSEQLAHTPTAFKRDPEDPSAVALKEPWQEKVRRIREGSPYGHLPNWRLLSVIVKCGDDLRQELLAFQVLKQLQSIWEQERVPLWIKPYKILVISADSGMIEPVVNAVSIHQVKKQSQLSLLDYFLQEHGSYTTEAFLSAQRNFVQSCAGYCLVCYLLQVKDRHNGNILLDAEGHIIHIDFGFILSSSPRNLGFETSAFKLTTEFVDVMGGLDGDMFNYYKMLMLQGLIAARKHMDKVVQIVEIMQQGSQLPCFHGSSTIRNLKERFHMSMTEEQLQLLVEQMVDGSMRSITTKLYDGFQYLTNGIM
T3 sequence (P42356 whole entry): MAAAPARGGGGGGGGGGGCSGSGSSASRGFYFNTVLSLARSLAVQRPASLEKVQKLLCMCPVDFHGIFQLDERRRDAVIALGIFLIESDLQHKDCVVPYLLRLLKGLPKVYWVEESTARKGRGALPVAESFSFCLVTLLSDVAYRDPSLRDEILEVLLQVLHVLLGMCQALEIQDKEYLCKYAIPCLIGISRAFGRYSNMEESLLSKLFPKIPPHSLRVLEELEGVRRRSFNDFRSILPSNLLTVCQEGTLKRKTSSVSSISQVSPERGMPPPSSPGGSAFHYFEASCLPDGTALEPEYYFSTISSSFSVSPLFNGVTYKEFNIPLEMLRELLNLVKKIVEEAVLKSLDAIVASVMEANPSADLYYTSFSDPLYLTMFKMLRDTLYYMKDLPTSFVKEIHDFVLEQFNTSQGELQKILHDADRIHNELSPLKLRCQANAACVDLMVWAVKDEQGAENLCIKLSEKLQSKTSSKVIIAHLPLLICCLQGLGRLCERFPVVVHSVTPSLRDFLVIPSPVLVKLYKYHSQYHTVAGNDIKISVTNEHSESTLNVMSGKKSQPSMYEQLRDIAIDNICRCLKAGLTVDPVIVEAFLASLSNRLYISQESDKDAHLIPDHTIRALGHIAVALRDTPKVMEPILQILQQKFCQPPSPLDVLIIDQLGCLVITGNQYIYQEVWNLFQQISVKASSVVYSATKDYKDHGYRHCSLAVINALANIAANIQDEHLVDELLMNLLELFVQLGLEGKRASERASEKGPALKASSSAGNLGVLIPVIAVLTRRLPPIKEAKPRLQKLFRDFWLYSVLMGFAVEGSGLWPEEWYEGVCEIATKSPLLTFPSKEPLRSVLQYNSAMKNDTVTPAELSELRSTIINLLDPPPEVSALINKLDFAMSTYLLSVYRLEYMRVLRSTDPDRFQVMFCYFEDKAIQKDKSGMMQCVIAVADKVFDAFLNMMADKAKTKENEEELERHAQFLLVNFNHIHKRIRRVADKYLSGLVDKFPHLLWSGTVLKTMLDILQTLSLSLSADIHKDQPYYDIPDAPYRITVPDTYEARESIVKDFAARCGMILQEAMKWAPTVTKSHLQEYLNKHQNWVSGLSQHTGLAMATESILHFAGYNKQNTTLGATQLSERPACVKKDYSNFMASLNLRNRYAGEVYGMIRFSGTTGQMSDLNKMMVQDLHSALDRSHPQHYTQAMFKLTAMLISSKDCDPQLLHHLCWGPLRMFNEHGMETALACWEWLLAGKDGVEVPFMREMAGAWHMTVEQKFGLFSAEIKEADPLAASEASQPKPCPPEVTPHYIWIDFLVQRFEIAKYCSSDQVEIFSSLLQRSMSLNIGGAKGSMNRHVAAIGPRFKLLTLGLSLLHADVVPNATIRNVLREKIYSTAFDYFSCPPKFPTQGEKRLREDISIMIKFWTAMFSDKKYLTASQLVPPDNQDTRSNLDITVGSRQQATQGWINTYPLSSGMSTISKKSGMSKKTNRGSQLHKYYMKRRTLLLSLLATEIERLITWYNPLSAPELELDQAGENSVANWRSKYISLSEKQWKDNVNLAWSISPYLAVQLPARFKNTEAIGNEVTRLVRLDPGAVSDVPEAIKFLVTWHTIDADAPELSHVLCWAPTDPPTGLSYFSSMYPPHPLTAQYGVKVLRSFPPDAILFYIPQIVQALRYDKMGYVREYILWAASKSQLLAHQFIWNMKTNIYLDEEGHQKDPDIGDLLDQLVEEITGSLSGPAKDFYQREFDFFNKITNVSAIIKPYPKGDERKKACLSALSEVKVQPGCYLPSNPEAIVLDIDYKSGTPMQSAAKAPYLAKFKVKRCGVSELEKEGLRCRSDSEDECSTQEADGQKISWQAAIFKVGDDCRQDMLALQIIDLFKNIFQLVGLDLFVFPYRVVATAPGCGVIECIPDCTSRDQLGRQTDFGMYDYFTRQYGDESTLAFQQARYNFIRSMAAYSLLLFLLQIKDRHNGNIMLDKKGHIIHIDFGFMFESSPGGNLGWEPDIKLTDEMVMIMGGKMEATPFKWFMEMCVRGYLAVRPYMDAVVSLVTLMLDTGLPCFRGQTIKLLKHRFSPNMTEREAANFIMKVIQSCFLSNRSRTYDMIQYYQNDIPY
T5 sequence (P42338 whole entry): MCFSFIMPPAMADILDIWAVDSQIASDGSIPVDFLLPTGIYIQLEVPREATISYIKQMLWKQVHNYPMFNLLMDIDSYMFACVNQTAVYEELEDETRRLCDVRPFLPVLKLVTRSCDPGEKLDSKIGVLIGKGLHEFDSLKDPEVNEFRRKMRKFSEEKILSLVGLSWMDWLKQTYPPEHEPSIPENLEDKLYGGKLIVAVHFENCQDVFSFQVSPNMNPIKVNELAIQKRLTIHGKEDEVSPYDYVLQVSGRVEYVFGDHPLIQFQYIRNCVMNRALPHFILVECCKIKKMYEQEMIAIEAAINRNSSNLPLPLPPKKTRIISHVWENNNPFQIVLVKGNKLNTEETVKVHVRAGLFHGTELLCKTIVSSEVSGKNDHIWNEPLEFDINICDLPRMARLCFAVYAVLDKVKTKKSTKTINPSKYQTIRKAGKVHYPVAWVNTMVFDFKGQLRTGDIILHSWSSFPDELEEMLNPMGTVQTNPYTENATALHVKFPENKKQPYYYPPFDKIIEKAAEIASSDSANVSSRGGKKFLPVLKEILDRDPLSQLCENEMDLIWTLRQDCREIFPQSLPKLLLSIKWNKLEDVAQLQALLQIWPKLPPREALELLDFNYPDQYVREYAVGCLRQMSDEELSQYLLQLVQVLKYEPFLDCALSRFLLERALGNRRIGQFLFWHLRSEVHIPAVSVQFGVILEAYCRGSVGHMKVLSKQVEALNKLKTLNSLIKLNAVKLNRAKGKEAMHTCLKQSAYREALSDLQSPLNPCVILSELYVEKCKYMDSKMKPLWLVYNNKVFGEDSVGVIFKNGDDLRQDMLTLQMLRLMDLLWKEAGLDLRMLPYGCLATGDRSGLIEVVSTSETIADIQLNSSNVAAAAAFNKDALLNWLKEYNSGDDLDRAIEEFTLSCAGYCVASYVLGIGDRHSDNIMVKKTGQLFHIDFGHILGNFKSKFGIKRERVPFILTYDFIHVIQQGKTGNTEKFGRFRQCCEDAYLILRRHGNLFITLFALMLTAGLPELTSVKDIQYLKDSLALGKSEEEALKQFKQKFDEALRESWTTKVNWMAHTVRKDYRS
T5 sequence (P27986 whole entry partner): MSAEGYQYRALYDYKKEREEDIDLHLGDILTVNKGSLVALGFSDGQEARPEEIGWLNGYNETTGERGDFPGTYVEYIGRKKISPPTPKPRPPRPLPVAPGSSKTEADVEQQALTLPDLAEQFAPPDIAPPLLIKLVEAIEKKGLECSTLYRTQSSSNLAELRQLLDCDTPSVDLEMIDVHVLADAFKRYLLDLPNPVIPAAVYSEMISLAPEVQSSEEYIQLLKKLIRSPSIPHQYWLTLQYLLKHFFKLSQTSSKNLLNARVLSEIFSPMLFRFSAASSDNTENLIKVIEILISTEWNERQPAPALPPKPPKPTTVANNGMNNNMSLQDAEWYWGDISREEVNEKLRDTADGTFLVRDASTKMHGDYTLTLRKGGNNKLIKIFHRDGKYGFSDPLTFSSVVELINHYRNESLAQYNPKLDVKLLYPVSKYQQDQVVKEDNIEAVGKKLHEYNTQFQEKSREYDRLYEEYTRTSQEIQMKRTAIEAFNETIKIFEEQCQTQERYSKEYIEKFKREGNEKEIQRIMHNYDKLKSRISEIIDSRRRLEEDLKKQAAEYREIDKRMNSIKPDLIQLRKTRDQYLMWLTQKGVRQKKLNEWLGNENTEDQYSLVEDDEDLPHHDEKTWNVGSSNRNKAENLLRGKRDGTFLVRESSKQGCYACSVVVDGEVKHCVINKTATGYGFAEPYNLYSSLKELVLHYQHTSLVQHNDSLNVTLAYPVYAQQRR

Compound: COc1ccc(-c2c(C)nn3c(NCCN4CCOCC4)cc(C)nc23)cc1OC [T-00127-HEV1, reference compound]
IC50 ([1]; RPMI-1788, 144 h, read-out: IC50 MLR): 842 nM

Compound: Cc1ccc(NC(=O)N2CCN(c3nc(N)nc4sc(-c5cccnc5)nc34)CC2)cc1 [formula (3)]
Surviving days (cardiac graft) ([2]; 20 mg/kg/d daily gavage, individual animals, 20 mg/kg/day): up to 13 days | grafts continuously functioning after stopping the treatment on day 30 ([2]; 40 mg/kg per day): 3/4 | grafts with continuous survival while treatment continued ([2]; 40 mg/kg per day): 4/6 | histological scores (hyperplasia, infiltration, pannus) ([3]; joints day 42): reduced | onset of arthritic symptoms ([3]; preventive, vs vehicle): delay the onset of arthritic symptoms | symptom severity ([3]; preventive, vs vehicle): decrease symptom severity | anti-CII IgG titre ([3]; serum day 42): reduced | grafts with prolonged survival at day 30 ([4]; Example 9, each group (40, 50, 60 mg/kg/d)): 3 out of 6 | day of rejection of second graft from third party donor [4, 12]: 8 days | time second graft from same donor strain was functional [4, 12]: more than 90 days | IC50 ([5]; read-out: IC50 for inhibition of IFNγ release): < 1 nM | IC50 ([5]; read-out: IC50 for inhibition of IL2 release): < 1 nM

Kinase activity [6]: 79 percentage of control | Kinase activity [7]: 98 percentage of control | IC50 [8]: 14.3 nM | inhibition at 10 µM [8]: 99.5% | Kinase activity [9]: 90 percentage of control | Kinase activity [10]: 108 percentage of control | Kinase activity [11]: 82 percentage of control
Compound: Cc1cccc(NC(=O)N2CCN(c3nc(N)nc4sc(-c5cccnc5)nc34)CC2)c1 [formula (2), 4-[5-amino-2-(pyridin-3-yl)thiazolo[5,4-d]pyrimidin-7-yl]-N-m-tolylpiperazine-1-carboxamide]

IC50 [8]: 21.8 nM | inhibition at 10 µM [8]: 95%
Compound: Nc1nc(N2CCN(C(=O)COc3ccc(F)cc3)CC2)c2nc(-c3cccnc3)sc2n1 [formula (4)]
IC50 [1, 13]: < 50 nM | IC50 ([1]; read-out: IC50 MLR, 6 days culture): 25 nM

Compound: CC(=O)Nc1nc(C)c(-c2ccc(Cl)c(S(=O)(=O)NCCO)c2)s1 [PIK93, reference compound]
IC50 [1, 13]: 401 nM
